Test results reported in patent US20080139536A1, “Benzodiazepines for Treating or Preventing Rsv Infection” (Novartis Pharmaceuticals Corporation, priority 2004, published 2008).

Test system: RSV (RSS strain)
Assay: RSV ELISA antigen reduction assay in Hep-2 cells
Assay type: cell-based, Respiratory Syncytial Virus
Details: RSV-infected Hep-2 cells, 3 day assay, ELISA OD 490 nm, 7-point dilution 50 μM-0.78 μM
Procedure: This was quantified by optical density (OD) measurement.
This assay was set up using all 96 wells of flat-bottomed 96-well plates. The outer wells were not subjected to any greater amount of evaporation than the inner wells during the 3 day assay period. (i.e. No “edge effect” seen).
Plates were set up one day before addition of virus and compounds. The assay then ran for 3 days with ELISA development taking place on the 4th day.
All 96 wells of a microtitre plate were seeded at a density of 4×10^3 Hep-2 cells/well in 100 μl/well of Growth Medium (GM) consisting of Dulbecco's MEM (DMEM) with Glutamax-1, Sodium Pyruvate, 1000 mg/l glucose and pyridoxine (Invitrogen, catalogue number 21885-025) and supplemented with 10% FBS. (See Plate 1).
A frozen vial of RSV (RSS strain provided by Virogen Ltd) stock solution was removed from the −80 freezer or liquid nitrogen store and diluted to a known Multiplicity of Infection (m.o.i) in Growth Medium.
The m.o.i. was calculated by prior titration of the virus stock (by the ELISA assay method) as the virus input required to achieve a window of at least 0.8 OD units between infected and uninfected control wells.
50 μl of diluted virus was added to infected, “virus+”, wells by multichannel pipette; 50 μl of Growth Medium was added to uninfected, cell control wells (CC) by multichannel pipette. (See Plate 2)
Plates were incubated at 37° C. for 1 hr to allow virus adsorption.
Compounds were made up at 4× strength in GM containing 2% DMSO (a final DMSO concentration in the assay of 0.5%).
Six compounds were tested on each assay plate as illustrated below. (See Plate 3). Compounds were tested in duplicate wells across a 7-point dilution series (from 50 μM-0.78 μM): in the presence of virus.
Virus infected, untreated wells served as the virus control (VC); Uninfected, untreated wells serve as the cell control (CC). The difference in absorbance between CC and VC wells constitutes the assay window.
200 μl of GM containing 2% DMSO was added to all wells except the ‘50 μM’ or first column, to which 392 μl of GM was added. 8 μl of each test compound was cherry-picked from a thawed Arrow screening plate and transferred to the appropriate well in the ‘50 μM’ column. Since the compound stock was at 10 mM in 100% DMSO, this will maintain the DMSO level at 2% at the top compound concentration.
Using a multichannel pipette, 200 μl was transferred from the 50 μM column to the 25 μM column, then to the 12.5 μM column and so on across the dilution plate creating a serial doubling dilution. Compounds were mixed upon transfer and tips changed between transfers, ensuring also that no compound was transferred to the last column of compound-free wells (0 μM).
The dilution plate was turned lengthways and 50 μl of compound easily transferred by multichannel pipette from the dilution plate to the assay plate, column by column. There was therefore an excess of 100 μl remaining in the dilution plate.
Plates were incubated at 37° C., 5% CO2 for 3 days.
Media was tapped out from wells directly into Virkon (1% solution in water) and plates were washed by immersing in a plastic box containing PBS. 50 μl/well of 75%/25% vol/vol acetone/methanol fixative was added by multichannel pipette and left for 3 mins.
Some 200 μl of blocking solution (2% Marvel in PBS containing 0.05% Tween) was added per well by multichannel pipette. Plates were incubated at 37° C. in a shaking incubator for 60 mins.
RSV mouse monoclonal antibody NCL-RSV3 (Novocastra) was diluted 1/400 in PBS/2% Marvel/0.05% Tween and 50 μl was added per well. Plates were incubated at 37° C. in a shaking incubator for 90 mins.
DAKo rabbit anti-mouse HRP conjugate (DAKO catalogue number P0260) was diluted 1/1000 in PBS/2% Marvel/0.05% Tween and 50 μl was added per well. Plates were incubated at 37° C. in a shaking incubator for 60 mins.
Substrate (SigmaFast OPD) was prepared in advance by dissolving 1 urea tablet in 20 mL water. […]

[1] = human respiratory syncytial virus, 72 h

Compound | IC50 [1] [µM] | IC50 [µM]
O=C(N[C@H]1N=C(c2ccccc2)c2ccccc2NC1=O)c1sccc1CN1CCOCC1 [Example 48, (S)-3-Morpholin-4-ylmethyl-thiophene-2-carboxylic acid (2-oxo-5-phenyl-2,3-dihydro-1H-benzo[e][1,4]diazepin-3-yl)-amide] | < 5 | 
O=C(N[C@H]1N=C(c2ccccc2)c2ccccc2NC1=O)c1ccc(N2CCOCC2)cc1Cl [Example 4, (S)-2-Chloro-4-morpholin-4-yl-N-(2-oxo-5-phenyl-2,3-dihydro-1H-benzo[e][1,4]diazepin-3-yl)-benzamide] | < 5 | 
O=C(N[C@H]1N=C(c2ccccc2)c2ccccc2NC1=O)c1ccc(CN2CCOCC2)s1 [Example 49, (S)-5-Morpholin-4-ylmethyl-thiophene-2-carboxylic acid (2-oxo-5-phenyl-2,3-dihydro-1H-benzo[e][1,4]diazepin-3-yl)-amide] | < 5 | 
O=C(NC1N=C(c2ccccc2)c2ccccc2NC1=O)c1ccc(N2CCCCC2)nc1 (racemic) [Example 2, 3,4,5,6-Tetrahydro-2H-[1,2′]bipyridinyl-5′-carboxylic acid (2-oxo-5-phenyl-2,3-dihydro-1H-benzo[e][1,4]diazepin-3-yl)-amide] | 5 to 10 | 
Cc1ccc(C(=O)N[C@H]2N=C(c3ccccc3)c3ccccc3NC2=O)c(N2CCS(=O)(=O)CC2)c1 [Example 24, (S)-2-(1,1-Dioxo-1λ6-thiomorpholin-4-yl)-4-methyl-N-(2-oxo-5-phenyl-2,3-dihydro-1H-benzo[e][1,4]diazepin-3-yl)-benzamide] | < 5 | 
(S)-5-Pyrrolidin-1-ylmethyl-furan-2-carboxylic acid (2-oxo-5-phenyl-2,3-dihydro-1H-benzo[e][1,4]diazepin-3-yl)-amide [Example 9] |  | 5 to 10
O=C(N[C@H]1N=C(c2ccccc2)c2ccccc2NC1=O)c1cccc(S(=O)(=O)N2CCCCC2)c1 [Example 30, (S)—N-(2-Oxo-5-phenyl-2,3-dihydro-1H-benzo[e][1,4]diazepin-3-yl)-3-(piperidine-1-sulfonyl)-benzamide] | 5 to 10 | 
O=C(N[C@H]1N=C(c2ccccc2)c2ccccc2NC1=O)c1cccc(S(=O)(=O)N2CCOCC2)c1 [Example 31, (S)-3-(Morpholine-4-sulfonyl)-N-(2-oxo-5-phenyl-2,3-dihydro-1H-benzo[e][1,4]diazepin-3-yl)-benzamide] | 5 to 10 | 
O=C(N[C@H]1N=C(c2ccccc2)c2ccccc2NC1=O)c1ccc(CN2CCS(=O)(=O)CC2)o1 [Example 34, (S)-5-(1,1-Dioxo-1λ6-thiomorpholin-4-ylmethyl)-furan-2-carboxylic acid (2-oxo-5-phenyl-2,3-dihydro-1H-benzo[e][1,4]diazepin-3-yl)-amide] | < 5 | 
O=C(N[C@H]1N=C(c2ccccc2)c2ccccc2NC1=O)c1cc(N2CCS(=O)(=O)CC2)ccc1Cl [Example 36, (S)-2-Chloro-5-(1,1-dioxo-1λ6-thiomorpholin-4-yl)-N-(2-oxo-5-phenyl-2,3-dihydro-1H-benzo[e][1,4]diazepin-3-yl)-benzamide] | < 5 | 
O=C(N[C@H]1N=C(c2ccccc2)c2ccccc2NC1=O)c1csc(-c2ccncc2)n1 [Example 39, (S)-2-Pyridin-4-yl-thiazole-4-carboxylic acid (2-oxo-5-phenyl-2,3-dihydro-1H-benzo[e][1,4]diazepin-3-yl)-amide] | < 5 | 
CN1CCN(c2ccc(C(=O)NC3N=C(c4ccccc4)c4ccccc4NC3=O)cn2)CC1 (racemic) [Example 1, 6-(4-Methyl-piperazin-1-yl)-N-(2-oxo-5-phenyl-2,3-dihydro-1H-benzo[e][1,4]diazepin-3-yl)-nicotinamide] | 5 to 10 | 
O=C(N[C@H]1N=C(c2ccccc2)c2ccccc2NC1=O)c1ccccc1N1CCS(=O)(=O)CC1 [Example 3] |  | 5 to 10
O=C(N[C@H]1N=C(c2ccccc2)c2ccccc2NC1=O)c1cc(CN2CCOCC2)on1 [Example 43, (S)-5-Morpholin-4-ylmethyl-isoxazole-3-carboxylic acid (2-oxo-5-phenyl-2,3-dihydro-1H-benzo[e][1,4]diazepin-3-yl)-amide] | < 5 | 
O=C(N[C@H]1N=C(c2ccccc2)c2ccccc2NC1=O)c1ccc(C(F)(F)F)cc1N1CCOCC1 [Example 18, (S)-2-Morpholin-4-yl-N-(2-oxo-5-phenyl-2,3-dihydro-1H-benzo[e][1,4]diazepin-3-yl)-4-trifluoromethyl-benzamide] | < 5 | 
O=C(N[C@H]1N=C(c2ccccc2)c2ccccc2NC1=O)c1cc(C(F)(F)F)ccc1N1CCOCC1 [Example 20, (S)-2-Morpholin-4-yl-N-(2-oxo-5-phenyl-2,3-dihydro-1H-benzo[e][1,4]diazepin-3-yl)-5-trifluoromethyl-benzamide] | > 10 | 
CN1CCN(S(=O)(=O)c2cccc(C(=O)N[C@H]3N=C(c4ccccc4)c4ccccc4NC3=O)c2)CC1 [Example 28, (S)-3-(4-Methyl-piperazine-1-sulfonyl)-N-(2-oxo-5-phenyl-2,3-dihydro-1H-benzo[e][1,4]diazepin-3-yl)-benzamide] | > 10 | 
O=C1Nc2ccccc2C(c2ccccc2)=N[C@@H]1NC(=O)n1c(=O)n(C2CC2)c2ncccc21 [Example 27, (S)-3-Cyclopropyl-2-oxo-2,3-dihydro-imidazo[4,5-b]pyridine-1-carboxylic acid (2-oxo-5-phenyl-2,3-dihydro-1H-benzo[e][1,4]diazepin-3-yl)-amide] | > 10 | 
Cc1cccc(N2CCS(=O)(=O)CC2)c1C(=O)N[C@H]1N=C(c2ccccc2)c2ccccc2NC1=O [Example 25, (S)-2-(1,1-Dioxo-1λ6-thiomorpholin-4-yl)-6-methyl-N-(2-oxo-5-phenyl-2,3-dihydro-1H-benzo[e][1,4]diazepin-3-yl)-benzamide] | > 10 | 
CN1CCN(c2ccc(C(=O)N[C@H]3N=C(c4ccccc4)c4ccccc4NC3=O)cc2)CC1 [Example 29, (S)-4-(4-Methyl-piperazin-1-yl)-N-(2-oxo-5-phenyl-2,3-dihydro-1H-benzo[e][1,4]diazepin-3-yl)-benzamide] | < 5 | 
CN(C)Cc1ccc(C(=O)N[C@H]2N=C(c3ccccc3)c3ccccc3NC2=O)o1 [Example 11, (S)-5-Dimethylaminomethyl-furan-2-carboxylic acid (2-oxo-5-phenyl-2,3-dihydro-1H-benzo[e][1,4]diazepin-3-yl)-amide] | < 5 | 
O=C(N[C@H]1N=C(c2ccccc2)c2ccccc2NC1=O)c1ccc(CN2CCOCC2)o1 [Example 32, (S)-5-Morpholin-4-ylmethyl-furan-2-carboxylic acid (2-oxo-5-phenyl-2,3-dihydro-1H-benzo[e][1,4]diazepin-3-yl)-amide] | < 5 | 
O=C(N[C@H]1N=C(c2ccccc2)c2ccccc2NC1=O)c1cccc(CN2CCOCC2)c1 [Example 42, (S)-3-Morpholin-4-ylmethyl-N-(2-oxo-5-phenyl-2,3-dihydro-1H-benzo[e][1,4]diazepin-3-yl)-benzamide] | < 5 | 
O=C(N[C@H]1N=C(c2ccccc2)c2ccccc2NC1=O)c1ccc(N2CCS(=O)(=O)CC2)cc1Cl [Example 35, (S)-2-Chloro-4-(1,1-dioxo-1λ6-thiomorpholin-4-yl)-N-(2-oxo-5-phenyl-2,3-dihydro-1H-benzo[e][1,4]diazepin-3-yl)-benzamide] | < 5 | 
O=C(N[C@H]1N=C(c2ccccc2)c2ccccc2NC1=O)c1ccc(C(F)(F)F)cc1N1CCCC1 [Example 16, (S)—N-(2-Oxo-5-phenyl-2,3-dihydro-1H-benzo[e][1,4]diazepin-3-yl)-2-pyrrolidin-1-yl-4-trifluoromethyl-benzamide] | 5 to 10 | 
